Consider 85 compounds from a melting point compilation (Tetko et al.).

The term melting point denotes the temperature of the solid-liquid transition.

As for `c1ccc(CCCc2ccccc2)cc1`, the melting point is 6 °C.

Turning to `c1ccc2c(c1)c(Cc1cn(CN3CCCCC3)c3ccccc13)cn2CN1CCCCC1`, the melting point came to 138 °C.

For the compound `NNC(=S)Nc1ccc(OCc2ccccc2)cc1`, the melting point lay in the range of 167 to 170 °C.

In turn, `CC(C)=C1C2C=CC1c1ccccc12` registered a melting point of 92 °C.

Take `CCNc1cc2oc(=O)cc(C)c2cc1C`: the melting point lay within 168 to 170 °C.

The compound `COS(=O)(=O)c1ccc(C)cc1` showed a melting point of 28.5 °C.

As for `O=S(=O)(CCCl)c1ccccc1`, the melting point was found to be 54 °C.

Turning to `CC1(C)CCC2(C)CCC3(C)C(=CCC4C5(C)CCC(O)C(C)(C)C5CCC43C)C2C1` (stereo not given), the melting point is 197 °C.

The compound `C=C(C)CNC(=S)NC` registered a melting point of 60 to 64 °C.

`CCCOC(=O)C1=C(C)NC(=O)NC1c1ccccc1` (stereo not given) came in with a melting point of 176 °C.

`Cc1ccc(O)c(Cl)c1C` gave a melting point of 27 °C.

On to `O=c1c(Nc2ccccc2)c(Nc2ccccc2)c1=O`, for which the melting point stood at 270 °C.

With `CCCCCCCCCC(=O)CCC`, the melting point turned out to be 19 °C.

As to `ON=C1CCCc2ccccc21`, the melting point was 103 to 105 °C.

The compound `CCCCCCCCCCCCCCCCCCCCCCCCCC(=O)O` registered a melting point of 88.5 °C.

Consider `Cc1nc(N)ccc1Br`, for which the melting point lay within 82 to 83 °C.

As for `COc1ccccc1CCC(=O)O`, the melting point turned out to be 87 °C.

`Nc1cnccc1Cl` yielded a melting point of 61 °C.

On to `O=c1ccc(=O)[nH][nH]1`, for which the melting point worked out at 306 °C.

As to `CC(=O)Oc1ccccc1C(=O)O`, the melting point was found to be 142 °C.

Compound `O=c1ccnc2n(-c3ccccc3)[nH]cc1-2` had a melting point of 167 °C.

The compound `O=[N+]([O-])c1cnc(Br)s1` gave a melting point of 88 °C.

`FC(F)(F)C(F)(F)C(F)(F)C(F)(F)C(F)(F)C(F)(F)C(F)(F)C(F)(F)Br`: the melting point is below 25 °C.

`O=Cc1cccn1-c1ccc(Cl)cc1` registered a melting point of 92 to 96 °C.

Regarding `O=C(O)c1cccc2cccc(Br)c12`, the melting point was 169 to 171 °C.

On to `COC(=O)c1cc(C)nc(Cl)n1`, for which the melting point is 110 to 111 °C.

Take `OCc1ccccc1Cn1cncn1`: the melting point is 98 to 100 °C.

The compound `CC1=CC(=O)C(C)=CC1=O` yielded a melting point of 123 to 126 °C.

With `O=C1CCC(=O)N1c1ccccc1`, the melting point is 156 °C.

`C=C1CC1CC(N)C(=O)O` (stereo not given) registered a melting point of 282 °C.

Compound `COc1ccc([N+](=O)[O-])c(I)c1` had a melting point of 68 to 73 °C.

Compound `NCCCNCCNCCCN` returned a melting point of -1.5 °C.

In turn, `CC(Oc1ccc2ccccc2c1)C(=O)Nc1ccccc1` (stereo not given) returned a melting point of 128 °C.

`CC(CBr)c1ccccc1` (stereo not given) gave a melting point of -59.3 °C.

`N#CCc1ccc(OCc2ccc(Cl)c(Cl)c2)cc1` yielded a melting point of 76 to 77 °C.

For `NC(=O)c1cccc2c1OCCO2`, the melting point was in the range of 130 to 132 °C.

`Cc1ccc(S(=O)(=O)NC(=O)NC2C3CCC(C)(C2O)C3(C)C)cc1` (stereo not given) yielded a melting point of 192 °C.

`C#CCCCCC` registered a melting point of -81 °C.

Turning to `OCC1OC(n2cnc3cncnc32)C(O)C1O` (stereo not given), the melting point turned out to be 181 °C.

`N#Cc1ccc(C(F)(F)F)c(F)c1` yielded a melting point of 47 °C.

`CC(=O)NC(Cc1ccccc1F)C(=O)O` (racemic) showed a melting point of 153 to 155 °C.

`Cc1cc(C=O)no1` registered a melting point of 31 to 33 °C.

Take `Cc1ccc(S(=O)(=O)N(CCO)CCO)cc1`: the melting point lay within 94 to 100 °C.

As to `CC(C)(C)OC(=O)NCCCC(=O)O`, the melting point worked out at 55 °C.

For `CCCCOCCOCCOC(C)=O`, the melting point is -32 °C.

With `COC(=O)C1=C(C)c2ccccc2C1`, the melting point was 66 °C.

For `ClCc1noc(-c2ccccc2)n1`, the melting point was determined as 64 °C.

In turn, `Cc1cc(C(F)(F)F)n2nc(N)c(/N=N/c3ccccc3Cl)c2n1` came in with a melting point of 238 °C.

The compound `Nc1nonc1N` gave a melting point of 178 to 183 °C.

`NC(=NO)c1cc(C(F)(F)F)cc(C(F)(F)F)c1` returned a melting point of 131 to 133 °C.

Take `Cc1cc(O)c2c(c1)C(=O)c1cccc(O)c1C2=O`: the melting point was 196 °C.

Consider `CCOC(=O)COc1cc(Cl)c(Cl)cc1Cl`, for which the melting point was 64 °C.

`O=Cc1cc(Br)cc2c1OCC2` had a melting point of 94 to 95 °C.

Consider `CCC(=O)Oc1ccc(C(CC)=C(CC)c2ccc(OC(=O)CC)cc2)cc1`, for which the melting point was 104 °C.

Compound `CCSCc1ccccc1OC(=O)NC` came in with a melting point of 33.4 °C.

The compound `CN(CC(=O)O)C(=O)OC(C)(C)C` displayed a melting point of 91 °C.

Consider `Cc1cc(C(=O)N2CCN(c3ccccc3)CC2)no1`, for which the melting point lay within 101 to 103 °C.

In turn, `NC(=S)c1ncc(C(F)(F)F)cc1N1CCCC1` gave a melting point of 176 to 180 °C.

For `CC(=O)CC(C)=O`, the melting point was -23 °C.

As to `N#CC=Cc1cc(C(F)(F)F)cc(C(F)(F)F)c1`, the melting point turned out to be 80 °C.

As to `C1CN(CCN2CCOCC2)CCO1`, the melting point was found to be 75 °C.

`Cc1cccc(NC(=O)C(C(F)(F)F)C(F)(F)F)c1` displayed a melting point of 175 °C.

Compound `OCC[C@@H](O)c1ccccc1` had a melting point of 62 to 66 °C.

The compound `Nc1ccc(Cn2ccnc2)cc1` registered a melting point of 128 to 130 °C.

Consider `FC(F)(Cl)C(F)(Cl)Cl`, for which the melting point was -35 °C.

As for `O=c1ccoc2ccc(Br)cc12`, the melting point came out at 141 °C.

As for `Nc1ccc(OC(F)(F)F)cc1[N+](=O)[O-]`, the melting point lay in the range of 62 to 64 °C.

`Cc1c(O)c(C)c(CCl)c(C)c1CCl` yielded a melting point of 135 to 140 °C.

On to `O=C(Nc1cccnc1Cl)c1ccc(Cl)cc1Cl`, for which the melting point lay in the range of 148 to 150 °C.

As for `O=[N+]([O-])c1ccc(-c2nnc3n2NC(c2ccco2)S3)cc1` (stereo not given), the melting point was determined as 210 °C.

`NC(CCC(=O)O)C(=O)O` (stereo not given) returned a melting point of 205 °C.

Compound `CCC(N)C(=O)O` (stereo not given) came in with a melting point of 304 °C.

The compound `O=[N+]([O-])c1ccc(S(=O)(=O)Oc2ccccc2)cc1` showed a melting point of 114 to 116 °C.

Regarding `O=[N+]([O-])c1ccc(I)c(Cl)c1`, the melting point stood at 99 °C.

`COc1ccccc1-c1ccc(C=NO)o1`: the melting point turned out to be 128 °C.

In the case of `CN1C(=O)NC(=O)C1(C)C`, the melting point was determined as 163 °C.

`Nc1ccc(-c2ccc(N)c(N)c2)cc1N` showed a melting point of 176 °C.

`O=C(O)CN(CCN(CC(=O)O)CC(=O)O)CC(=O)O` registered a melting point of 220 °C.

Consider `O=C(NC(CC=Cc1ccccc1)C(=O)O)OCC1c2ccccc2-c2ccccc21` (stereo not given), for which the melting point was 142 °C.

As for `Cn1ncc2c(=N)n(N)cnc21`, the melting point amounted to 185 °C.

As for `O=[N+]([O-])c1cccc(Cl)c1O`, the melting point stood at 70 °C.

On to `Cc1csc(C(=O)NN)c1Cl`, for which the melting point lay in the range of 130 to 132 °C.

`N=C1NC(=O)C(=NNc2ccccc2[N+](=O)[O-])S1` displayed a melting point of 274 °C.

The compound `NS(=O)(=O)c1ccc(F)c(Cl)c1` gave a melting point of 109 °C.

With `ON=C1CCCCCN1`, the melting point was in the range of 168 to 170 °C.
